One experiment has as its system TIF-IA. In words: In vitro transcription assay of TIF-IA purified from treated cells, in nuclear extract from density-arrested FM3A cells. It counts as biochemical. The protocol:
(A) TIF-IA activity in starved and serum-stimulated cells. The indicated amounts of TIF-IA purified from starved NIH3T3 cells (lanes 2-4) or cells that were stimulated by serum in the absence (lanes 5-7) or presence of PD98059 (lanes 8-10) were assayed for their capability to restore transcription of a nuclear extract from density-arrested FM3A cells (lane 1). The amount and purity of TIF-IA were estimated on silver-stained SDS-polyacrylamide gels (data not shown).
FLAG-tagged TIF-IA was purified from untreated (lanes 2-3) or PD98059-treated HEK293T cells (lanes 4-5). The indicated amounts of TIF-IA were assayed for their capability to restore transcription of a nuclear extract from density-arrested FM3A cells (lane 1). The amount of TIF-IA was estimated on silver-stained SDS-polyacrylamide gels (data not shown).
20 and 40 ng of TIF-IA that was immunopurified from untreated (lanes 2, 3) and rapamycin-treated cells (lanes 4, 5) were added to transcription reactions containing nuclear extracts (30 μg) from density-arrested cells.
Nuclear extracts were prepared from exponentially growing (8×10^5 cells/ml), density-arrested or PD98059-treated (CN Bioscience, Bad Soden, Germany) 40 μM, 0.5 hr) or rapamycin-treated FM3A cells (ATCC, Manassas, USA). […] After incubation for 60 min at 30° C., RNA was extracted and analyzed on non-denaturing 5% polyacrylamide gels […]

The subject of the next experiment is Pol I transcription. In words: Complementation of Pol I transcription in nuclear extracts from PD98059-treated FM3A cells. Type of experiment: biochemical. The method, then:
(C) TIF-IA, but not UBF, rescues Pol I transcription in extracts from PD98059-treated cells. Nuclear extracts from untreated or PD98059-treated FM3A cells were supplemented with 20 and 40 ng of purified TIF-IA and/or UBF (10 ng in lanes 7 and 9, 50 ng in lanes 3, 8 and 10).
(D) TIF-IA activates transcription in extracts from PD98059-treated cells in the presence of AMP-PNP and GMP-PNP. Nuclear extracts from PD98059-treated FM3A cells were supplemented with 40 ng of purified TIF-IA and assayed in the standard transcription system containing ATP and GTP (ATP, lanes 1, 2) or AMP-PNP and GMP-PNP (AMP-PNP, lanes 3, 4)
(D) ERK/RSK-dependent phosphorylation activates Pol I transcription in vitro. Nuclear extracts from PD98059-treated FM3A cells were supplemented with 40 ng of TIF-IA, 10 ng of HA-RSK, or 10 ng of HA-ERK as indicated, and transcriptional activity was assayed in the standard transcription system containing ATP and GTP (lanes 4-8) or AMP-PNP and GMP-PNP (lanes 9-13).
Nuclear extracts were prepared from exponentially growing (8×10^5 cells/ml), density-arrested or PD98059-treated (CN Bioscience, Bad Soden, Germany) 40 μM, 0.5 hr) or rapamycin-treated FM3A cells (ATCC, Manassas, USA). 25 μl assays contained 50 ng of template DNA (pMr600/EcoRI), 30 μg nuclear extract proteins and 12 mM Hepes-KOH, [pH8.0], 0.1 mM EDTA, 5 mM MgCl2, 80 mM KCl, 10 mM creatine phosphate, 12% (v/v) glycerol, 0.66 mM each of ATP, GTP and CTP, 0.01 mM UTP and 0.5 μCi [α-^32P]UTP (5000 Ci/mmol). After incubation for 60 min at 30° C., RNA was extracted and analyzed on non-denaturing 5% polyacrylamide gels
To test whether both TIF-IA and UBF, or TIF-IA alone, were targeted by ERK-mediated phosphorylation, nuclear extracts from untreated and PD98059-treated cells were assayed for rDNA transcription in the absence and presence of exogenous TIF-IA or UBF (FIG. 2C). If both UBF and TIF-IA were inactivated by PD98059, rescue of Pol I transcriptional activity would require both factors, whereas TIF-IA alone would be sufficient if it was the only factor that is inactivated by inhibition of the ERK pathway. […]

For the molecule `COc1cccc(-c2cc(=O)c3ccccc3o2)c1N` [PD98059], the “transcriptional activity of TIF-IA from treated cells” value is “TIF-IA remained inactive” with TIF-IA (NIH3T3 cells stimulated with serum in the presence of PD98059) and “transcriptionally inactive” with TIF-IA (unsynchronized cells treated for 30 min with PD98059).
As for “TIF-IA: wild-type human transcription initiation factor TIF-IA, accession No. AJ272050”, the “rescue of Pol I transcription in extracts from PD98059-treated cells” value in the experiment with Pol I transcription (in the presence of AMP-PNP and GMP-PNP) was “activation of Pol I transcription by TIF-IA was also observed”; with Pol I transcription (standard transcription system containing ATP and GTP), “rescued”.

Source of the values: patent publication US20060057669A1, “Inactive transcription factor tif-ia and uses thereof” (priority 2002, published 2006).
